Measured values published in ChEMBL document CHEMBL5365514, “Redefining Cancer Therapy: Toward BCL-XL/BCL-2 Dual Inhibitors with Diminished Platelet Toxicity” (ACS Med Chem Lett, 2023).

Assays:
MOLT-4 = test: Antiproliferative activity against human MOLT-4 cells assessed as inhibition of cell growth measured after 48 hrs by MTS assay; format: functional, cell-based; settings: MOLT-4, 48 h
RS4-11 = test: Antiproliferative activity against human RS4-11 cells assessed as inhibition of cell growth measured after 48 hrs by MTS assay; format: functional, cell-based; settings: RS4-11, 48 h

Cc1ncsc1-c1ccc([C@H](C)NC(=O)[C@@H]2C[C@@H](O)CN2C(=O)[C@@H](NC(=O)CN(C)CC(=O)N2CCC(C3CCN(C[C@]4(C)CCC(c5ccc(Cl)cc5)=C(CN5CCN(c6ccc(C(=O)NS(=O)(=O)c7ccc(N[C@H](CCN8CCCOCC8)CSc8ccccc8)c(S(=O)(=O)C(F)(F)F)c7)cc6)CC5)C4)CC3)CC2)C(C)(C)C)cc1
IC50 (MOLT-4): < 20 nM
IC50 (RS4-11): < 20 nM

Cc1ncsc1-c1ccc([C@H](C)NC(=O)[C@@H]2C[C@@H](O)CN2C(=O)[C@@H](NC(=O)CCCCC(=O)N2CCN(C3CCN(C[C@]4(C)CCC(c5ccc(Cl)cc5)=C(CN5CCN(c6ccc(C(=O)NS(=O)(=O)c7ccc(N[C@H](CCN8CCCOCC8)CSc8ccccc8)c(S(=O)(=O)C(F)(F)F)c7)cc6)CC5)C4)CC3)CC2)C(C)(C)C)cc1
IC50 (MOLT-4): < 20 nM
IC50 (RS4-11): < 20 nM

Cc1ncsc1-c1ccc([C@H](C)NC(=O)[C@@H]2C[C@@H](O)CN2C(=O)[C@@H](NC(=O)CN(C)CCC(=O)N2CCC(C3CCN(C[C@]4(C)CCC(c5ccc(Cl)cc5)=C(CN5CCN(c6ccc(C(=O)NS(=O)(=O)c7ccc(N[C@H](CCN8CCCOCC8)CSc8ccccc8)c(S(=O)(=O)C(F)(F)F)c7)cc6)CC5)C4)CC3)CC2)C(C)(C)C)cc1
IC50 (MOLT-4): < 20 nM
IC50 (RS4-11): < 20 nM
